Laboratory results reported in ChEMBL document CHEMBL1201862, “PubChem BioAssay data set” (2004).
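Compound exposure: 48 hours, 5 concentrations, 96-well plates. The concentration for 50% growth inhibition is given as GI50.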 Active and inactive are the calls of the source. Rule as the data show it: active = GI50 up to about 1.1 µM and inactive = higher.

Assays:
Assay in all cases: DTP human tumour cell line panel, 48 h
786-0 = test system: 786-0
A498 = test system: A498
A549 = test system: A549
BT-549 = test system: BT-549
CAKI-1 = test system: CAKI-1
CCRF-CEM = test system: CCRF-CEM
COLO 205 = test system: COLO 205
DU-145 = test system: DU-145
EKVX = test system: EKVX
HCC 2998 = test system: HCC 2998
HCT-116 = test system: HCT-116
HCT-15 = test system: HCT-15
HL-60 = test system: HL-60
HOP-62 = test system: HOP-62
HOP-92 = test system: HOP-92
HT-29 = test system: HT-29
Hs-578T = test system: Hs-578T
IGROV-1 = test system: IGROV-1
K562 = test system: K562
KM12 = test system: KM12
LOX IMVI = test system: LOX IMVI
M14 = test system: M14
MCF7 = test system: MCF7
MDA-MB-231 = test system: MDA-MB-231
MDA-MB-435 = test system: MDA-MB-435
MDA-N = test system: MDA-N
MOLT-4 = test system: MOLT-4
Malme-3M = test system: Malme-3M
NCI-H226 = test system: NCI-H226
NCI-H23 = test system: NCI-H23
NCI-H460 = test system: NCI-H460
NCI-H522 = test system: NCI-H522
NCI/ADR-RES = test system: NCI/ADR-RES
OVCAR-3 = test system: OVCAR-3
OVCAR-4 = test system: OVCAR-4
OVCAR-5 = test system: OVCAR-5
OVCAR-8 = test system: OVCAR-8
PC-3 = test system: PC-3
RPMI-8226 = test system: RPMI-8226
RXF 393 = test system: RXF 393
SF-268 = test system: SF-268
SF-295 = test system: SF-295
SF-539 = test system: SF-539
SK-MEL-28 = test system: SK-MEL-28
SK-MEL-2 = test system: SK-MEL-2
SK-MEL-5 = test system: SK-MEL-5
SK-OV-3 = test system: SK-OV-3
SN12C = test system: SN12C
SNB-19 = test system: SNB-19
SNB-75 = test system: SNB-75
SR = test system: SR
SW-620 = test system: SW-620
T47D = test system: T47D
TK-10 = test system: TK-10
U-251 = test system: U-251
UACC-257 = test system: UACC-257
UACC-62 = test system: UACC-62
UO-31 = test system: UO-31
ACHN = test system: ACHN

CC[C@@]1(O)C[C@H](OC2CC(N(C)C)C(O)C(C)O2)c2c(O)c3c(c(O)c2[C@H]1OC1CC(N(C)C)C(O)C(C)O1)C(=O)c1cccc(O)c1C3=O (stereo not given in full)
GI50 (786-0): 19.6 nM (active) | GI50 (A498): 12 nM (active) | GI50 (A549): 30.6 nM (active) | GI50 (BT-549): 41 nM (active) | GI50 (CAKI-1): 19.5 nM (active) | GI50 (CCRF-CEM): 68.7 nM (active) | GI50 (COLO 205): 32.1 nM (active) | GI50 (DU-145): 182 nM (active) | GI50 (EKVX): 98.4 nM (active) | GI50 (HCC 2998): 28.4 nM (active) | GI50 (HCT-116): 24.7 nM (active) | GI50 (HCT-15): 58.5 nM | GI50 (HL-60): 86.9 nM (active) | GI50 (HOP-62): 40.4 nM (active) | GI50 (HOP-92): 71 nM (active) | GI50 (HT-29): 22.4 nM (active) | GI50 (Hs-578T): 57.7 nM (active) | GI50 (IGROV-1): 70.6 nM (active) | GI50 (K562): 26.7 nM (active) | GI50 (KM12): 28 nM (active) | GI50 (LOX IMVI): 20.8 nM (active) | GI50 (M14): 35.7 nM (active) | GI50 (MCF7): 32.1 nM (active) | GI50 (MDA-MB-231): 34.1 nM (active) | GI50 (MDA-MB-435): 34.1 nM (active) | GI50 (MDA-N): 36.3 nM (active) | GI50 (MOLT-4): 81.7 nM (active) | GI50 (Malme-3M): 42.4 nM (active) | GI50 (NCI-H226): 21.9 nM (active) | GI50 (NCI-H23): 57 nM (active) | GI50 (NCI-H460): 18 nM (active) | GI50 (NCI-H522): 14.4 nM (active) | GI50 (NCI/ADR-RES): 177 nM (active) | GI50 (OVCAR-3): 51 nM (active) | GI50 (OVCAR-4): 40.9 nM (active) | GI50 (OVCAR-5): 83.8 nM (active) | GI50 (OVCAR-8): 27.4 nM (active) | GI50 (PC-3): 36.1 nM (active) | GI50 (RPMI-8226): 40.9 nM (active) | GI50 (RXF 393): 25.5 nM (active) | GI50 (SF-268): 60.3 nM (active) | GI50 (SF-295): 40 nM (active) | GI50 (SF-539): 53.1 nM (active) | GI50 (SK-MEL-28): 37.3 nM (active) | GI50 (SK-MEL-2): 22.7 nM (active) | GI50 (SK-MEL-5): 32.3 nM (active) | GI50 (SK-OV-3): 39.7 nM (active) | GI50 (SN12C): 54 nM (active) | GI50 (SNB-19): 40 nM (active) | GI50 (SNB-75): 19.5 nM (active) | GI50 (SR): 38.5 nM (active) | GI50 (SW-620): 37.8 nM (active) | GI50 (T47D): 60 nM (active) | GI50 (TK-10): 47.3 nM (active) | GI50 (U-251): 26.4 nM (active) | GI50 (UACC-257): 146 nM (active) | GI50 (UACC-62): 25.3 nM (active) | GI50 (UO-31): 27.5 nM (active)

CN(C)CCCc1cccnc1
GI50 (786-0): > 100000 nM (inactive) | GI50 (A498): > 100000 nM (inactive) | GI50 (A549): > 100000 nM (inactive) | GI50 (ACHN): > 100000 nM (inactive) | GI50 (BT-549): > 100000 nM (inactive) | GI50 (CAKI-1): > 100000 nM (inactive) | GI50 (CCRF-CEM): > 100000 nM (inactive) | GI50 (COLO 205): > 100000 nM (inactive) | GI50 (DU-145): > 100000 nM (inactive) | GI50 (EKVX): > 100000 nM (inactive) | GI50 (HCC 2998): > 100000 nM (inactive) | GI50 (HCT-116): > 100000 nM (inactive) | GI50 (HCT-15): > 100000 nM | GI50 (HL-60): > 100000 nM (inactive) | GI50 (HOP-62): > 100000 nM (inactive) | GI50 (HOP-92): > 100000 nM (inactive) | GI50 (HT-29): > 100000 nM (inactive) | GI50 (Hs-578T): > 100000 nM (inactive) | GI50 (IGROV-1): > 100000 nM (inactive) | GI50 (K562): > 100000 nM (inactive) | GI50 (KM12): > 100000 nM (inactive) | GI50 (LOX IMVI): > 100000 nM (inactive) | GI50 (M14): > 100000 nM (inactive) | GI50 (MCF7): > 100000 nM (inactive) | GI50 (MDA-MB-231): > 100000 nM (inactive) | GI50 (MDA-MB-435): > 100000 nM (inactive) | GI50 (MDA-N): > 100000 nM (inactive) | GI50 (Malme-3M): > 100000 nM (inactive) | GI50 (NCI-H226): > 100000 nM (inactive) | GI50 (NCI-H23): > 100000 nM (inactive) | GI50 (NCI-H460): > 100000 nM (inactive) | GI50 (NCI-H522): > 100000 nM (inactive) | GI50 (NCI/ADR-RES): > 100000 nM (inactive) | GI50 (OVCAR-3): > 100000 nM (inactive) | GI50 (OVCAR-4): > 100000 nM (inactive) | GI50 (OVCAR-5): > 100000 nM (inactive) | GI50 (OVCAR-8): > 100000 nM (inactive) | GI50 (PC-3): > 100000 nM (inactive) | GI50 (RPMI-8226): > 100000 nM (inactive) | GI50 (RXF 393): > 100000 nM (inactive) | GI50 (SF-268): > 100000 nM (inactive) | GI50 (SF-295): > 100000 nM (inactive) | GI50 (SK-MEL-28): > 100000 nM (inactive) | GI50 (SK-MEL-2): > 100000 nM (inactive) | GI50 (SK-MEL-5): > 100000 nM (inactive) | GI50 (SK-OV-3): > 100000 nM (inactive) | GI50 (SN12C): > 100000 nM (inactive) | GI50 (SNB-19): > 100000 nM (inactive) | GI50 (SNB-75): 41700 nM (inactive) | GI50 (SR): > 100000 nM (inactive) | GI50 (SW-620): > 100000 nM (inactive) | GI50 (T47D): > 100000 nM (inactive) | GI50 (TK-10): > 100000 nM (inactive) | GI50 (U-251): > 100000 nM (inactive) | GI50 (UACC-257): > 100000 nM (inactive) | GI50 (UACC-62): > 100000 nM (inactive) | GI50 (UO-31): > 100000 nM (inactive)
